One data set deals with Caco-2 cells. As to the kind of experiment: Cellular uptake into Caco-2 cells under various pH conditions (pH profile). In kind it is in vitro ADME, human. The following applies: 2 mM, uptake over 15 minutes. On the procedure:
To investigate the effect of extracellular fluid on the cellular uptake of dipeptides and β-lactam antibiotics transported by PEPT1, the cellular uptake of dipeptides, i.e., [^14C]glycylsarcosine ([^14C]GlySar) and [^3H]carnosine, and β-lactam antibiotics, i.e., cefadroxil (CDX), cefixime (CFIX), and FK089, was evaluated at pH 5.0 to 7.0 using gastrointestinal tract model cells (Caco-2 cells).
Cells cultured on 4-well plates were rinsed 3 times with 1 mL Hanks' balanced salt solution (HBSS: 0.952 mM CaCl2, 5.36 mM KCl, 0.441 mM KH2PO4, 0.812 mM MgSO4, 136.7 mM NaCl, 0.385 mM Na2HPO4, 25 mM D-glucose, 10 mM HEPES; pH 7.4; osmotic pressure 315 mOs/kg) heated to 37° C., and uptake was initiated by adding 250 μL HBSS containing medical fluid. Uptake was terminated at a predetermined period of time by washing the cells 3 times with 1 mL ice-cooled HBSS. […] The medicaments contained in the solution extracted from the cells were quantified by a liquid scintillation counter or liquid chromatography (HPLC). Proteins contained in the cells were quantified using a protein assay kit (Bio-Rad, Richmond, Calif., USA) according to the Bradford assay (Bradford, M. M. “A Rapid and Sensitive Method for the Quantitation of Microgram Quantities of Protein Utilizing the Principle of Protein-Dye Binding”. Anal. Biochem. 72 (1976): 248-254). […]

In another data set the test system is rat ileum. As to the kind of experiment: Absorption in rat intestinal loop, in situ closed loop method. The following applies: 20 minutes, CDX 1 mM or CFIX 0.5 mM in MES buffer pH 6.0. It counts as in vivo. On the procedure:
For example, rats are anesthetized by intraperitoneally administering pentobarbital sodium (50 mg/kg). Then, laparotomy is performed along the median line to expose the intestinal tract, and a loop is formed at the ileum (e.g., FIG. 6). MES buffer containing medical fluid and a polymer (5 mM KCl, 100 mM NaCl, 10 mM 2-(N-morpholino)ethanesulfonic acid (MES), 85 mM mannitol, 0.01% polyethylene glycol; pH 6.0; osmotic pressure 290 mOs/kg) is introduced into the intestinal loop and both ends of the loop are ligated. Subsequently, the intestinal loop is immediately returned to the abdominal cavity. An incandescent lamp is used to maintain the body temperature. The solution inside the intestinal loop is retrieved 20 minutes after its administration. The pH was measured by pH-meter. The amount of medicaments are measured by HPLC.
The oral composition of the invention was prepared by adding a β-lactam antibiotic (CDX or CFIX) to 10 mM MES buffer (pH 6.0) such that the buffer contained CDX in an amount of 1 mM or CFIX in an amount of 0.5 mM, and further adding Eudragit L100-55 to the buffer so that it contained in a proportion of 10 or 20 wt. % based on the amount of the entire oral composition. A β-lactam antibiotic solution containing no Eudragit L100-55 was prepared as a control.
These compositions were administered into the intestinal loops prepared at the caecum junction of SD male rats (junction between the terminal of the ileum and where the caecum starts) to a distance of 14 cm toward the stomach. The solution remaining in the intestinal loops was retrieved 20 minutes after administration. The concentration of β-lactam antibiotic in the retrieved solution was measured by HPLC, and pH of the retrieved solution was measured using a pH meter. Absorbability was evaluated according to the decrease in the concentration of β-lactam antibiotic in the retrieved solution in comparison with the concentration thereof in the solution administered.

Data set [1] can be described thus: Plasma concentration of CFIX after oral administration to rats with polymer and/or CDX. In kind it is in vivo. The following applies: male, SD, rat, CFIX 2.3 mg/kg, polymer 500 mg/kg. On the procedure:
To investigate whether absorption of orally-administered peptidergic compounds in rats is improved by controlling gastrointestinal pH using pH-sensitive polymers, the time course of the plasma concentration of CFIX was examined after orally administering the peptidergic compound CFIX in combination with a pH-sensitive polymer (Eudragit L100-55) or pH-insensitive polymer (Eudragit RS PO).
The oral composition of the invention was prepared by adding Eudragit L100-55 to an aqueous solution of CFIX (0.23 mg/mL) such that the solution contained Eudragit L100-55 in a proportion of 5 wt. % based on the amount of the entire oral composition. A CFIX solution containing no Eudragit L100-55 was prepared as a control. These compositions were orally administered to SD male rats (body weight: 190 to 220 g) fasted for an entire day and night such that CFIX was given in a dose of 2.3 mg/kg. Blood was collected 15 to 480 minutes after administration, and the plasma concentration of CFIX was measured by HPLC. Based on the plasma concentration profile of CFIX thus obtained, the area under the plasma drug concentration-time curve (AUC) and highest drug concentration observed in plasma following administration of an extravascular dose (Cmax) were obtained.
Plots (◯) represent absorption of CFIX in the absence of a polymer, plots (●) represent absorption of CFIX in the presence of Eudragit L100-55 (500 mg/kg), and plots (□) represent absorption of CFIX in the presence of Eudragit RS PO (500 mg/kg). Each plot represents the mean±standard error of 5 experiments.
The experimental procedure was as described in Example 4 except that CDX was simultaneously administered.
FIG. 5 depicts the influence of CDX on the oral administration profile of CFIX after administering the composition (CFIX: 2.3 mg/kg) to rats. Plots (●) represent absorption of CFIX when Eudragit L100-55 (500 mg/kg) and 0 mM CDX were used, plots (▴) represent absorption of CFIX when Eudragit L100-55 (500 mg/kg) and 2 mM CDX were used, and plots (▪) represent absorption of CFIX when Eudragit L100-55 (500 mg/kg) and 10 mM CDX were used. […]

For the compound `CC1=C(C(=O)O)N2C(=O)[C@@H](NC(=O)[C@H](N)c3ccc(O)cc3)[C@H]2SC1` [CDX, cefadroxil], in the data set with Caco-2 cells (pH 5.0 to 7.0), the “pH of optimum uptake into Caco-2 cells” value was found to be 6.0. Moreover, the “absorption from rat intestinal loop” value in the data set with rat ileum (no Eudragit L100-55) is on record as “about 40%”; in the data set on rat ileum (with Eudragit L100-55 20 wt. %), “about 80%”.
In the case of `C=CC1=C(C(=O)O)N2C(=O)[C@@H](NC(=O)/C(=N\OCC(=O)O)c3csc(N)n3)[C@H]2SC1` [CFIX, cefixime], the “cellular uptake when pH of extracellular fluid is decreased from 6.0 to 5.0” value in the data set with Caco-2 cells (Caco-2 cells) is listed as “greatly enhanced”. Further, in the data set with rat ileum (no Eudragit L100-55), the “absorption from rat intestinal loop” value was “hardly absorbed”. Besides, the “absorption from rat intestinal loop” value in the data set with rat ileum (with Eudragit L100-55 20 wt. %) is listed as “about 35%”. In data set [1], the Cmax was 4130 ± 500 ng/mL and the Tmax came to 43.2 ± 12 min. Further, in data set [1] (read-out: AUC0-8h of CFIX), the AUC(0-t) is 10800 ± 1480 ng·h/mL.

The Cmax is the peak of the concentration-time curve. By Tmax is commonly meant the time from dosing to the highest level.

Values taken from US8871818B2, “Gastrointestinal absorption enhancer mediated by proton-coupled transporter and its preparing method” (Otsuka Pharmaceutical Co., Ltd., priority 2003, dated 2014).
